Test [1] has as its system KV2.1. The settings on record: cited from earlier work.
Test [2] relates to adult mice (hindpaw). The class given is in vivo, mouse. Conditions: 0.2 nmol A803467 coadministered with 0.6 nmol sPm1a, intraplantar; P < 0.001.
The test system of test [3] is adult mice (hindpaw). The test can be described thus: mechanical paw withdrawal threshold. The class given is in vivo, mouse. Conditions: 200 pmol A803467 with 600 pmol sPm1a; n = 5 to 8; P < 0.001.
Test [4] deals with small dorsal root ganglion neurons. The class given is cell-based, mouse. Conditions: A803467 1 µM with sPm1a; n = 6; sPm1a vs. A803467/sPm1a P = 0.0007.
In test [5] the test system is TTX-R NaV channels of small DRG neurons. The class given is cell-based, mouse. The settings on record: A803467 1 μM with sPm1a; TTX 0.5 μM; n = 5.

For the molecule “ScTx1: gating-modifier venom peptide (DCTRMFGACRRDSDCCPHLGCKPTSKYCAWDGTI; Stromatoxin-1; UniProt P60991 1-34, looked up)”, in test [1], the KV2.1 gating modification result was “shifting its activation to more depolarized voltages”.
Turning to `COc1cc(NC(=O)c2ccc(-c3ccc(Cl)cc3)o2)cc(OC)c1` [A803467], the “spontaneous nocifensive behavior, paw flinches” value in test [2] was found to be 93.8 ± 8.8 flinches per 15 min. For the same molecule, the “paw withdrawal force (mechanical allodynia)” value in test [3] worked out at 2.5 ± 0.2 g. In addition, the “inhibition of sPm1a-induced neuronal firing” value in test [4] is reported as “abolished sPm1a-induced neuronal firing”. Moreover, the “reduction of sPm1a-sensitive TTX-R NaV component” value in test [5] is on record as 87.3 ± 11.1%.

Values taken from publication PMC8812547 (Proceedings of the National Academy of Sciences of the …, 2022).
